# Reference: publication PMC11292009, “Mapping protein binding sites by photoreactive fragment pharmacophores” (Communications Chemistry, 2024)
# “And” between values parts separate entries of the source, which are not always exact repeats. Equal values may be shown once.
# Legend:
# MOLM-13 cells = test: CellTiter-Blue cell viability assay, MOLM-13; type: cell-based; settings: Homo sapiens, MOLM-13, 72 h
# Method: MV4-11 and MOLM-13 cell lines were purchased from DSMZ (Braunschweig, Germany), and grown at 37 °C and 5% CO2 in RPMI 1640 medium (Gibco^TM, Thermo Fisher Scientific). Media were supplemented with 10% fetal calf serum (FCS), 10 U/mL penicillin, 10 µg/mL streptomycin and 2 mM L-glutamine (all Gibco^TM, Thermo Fisher Scientific).
# To determine the IC50 of the selected compounds on the cell lines, CellTiter-Blue® cell viability assay (Promega) was performed. For this, cells were seeded in 96-well flat bottom plates at a cell density of 10,000 cells/well. Cells were treated in triplicates with the compound of interest at various concentrations or with 10 μM Bortezomib (S1013; Selleck Chemicals, Houston, TX, USA) as a positive control. Cell viability of treated cell lines was measured using CellTiter-Blue® after 72 h incubation. Plates were measured using a GloMax® plate reader (Promega) and IC50 values were determined by non-linear regression using the GraphPad Prism 9.1.1 (GraphPad Software, Inc.) and the data are reported as mean values ± SEM.
# STAT5B NTD = target: T1, STAT5B NTD (Homo sapiens, UniProt P51692); test: Microscale thermophoresis (MST), without irradiation; type: binding; settings: for ΔFnorm: Fnorm - Unbound value; for ΔFnorm / Fnorm: Php065 concentration [log; for Fnorm: MST raw data
# T1 construct: His-SUMO (N, cleaved yes); made in house; host or cells: E. coli BL21 RILP
# T1 sequence (P51692 1-123): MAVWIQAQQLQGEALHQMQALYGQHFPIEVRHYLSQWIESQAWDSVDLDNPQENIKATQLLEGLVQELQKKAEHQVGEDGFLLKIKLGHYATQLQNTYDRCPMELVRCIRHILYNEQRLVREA
# Method: For the microscale thermophoresis (MST) studies, we prepared 16 two-fold serial dilutions of compounds starting from 500 μM. Titration series were prepared that contained 10 μL of compounds’ solutions of varying concentrations and 10 μL RED-NHS 2nd Generation labeled STAT5B NTD with a concentration of 168 nM for compound PhP097, and a concentration of 84 nM for compound PhP065. Final buffer composition included 1X PBS containing 0.5% DMSO. All measurements were taken in Premium Coated Capillaries on a Monolith NT.115 instrument (NanoTemper Technologies, Munich, Germany) using 80% infrared laser power for compound PhP097, 60% infrared laser power for compound PhP065, and an LED excitation source with λ = 650 nm at a temperature of 25 °C. Results were expressed as the mean of two separate experiments, with three technical replicates each. GraphPad Prism 9.5.1 software was used to fit the data and to determine the KD values.
# SW48-G12D cells = test: MTT cell viability assay, SW48-G12D; type: cell-based, human; settings: for cell viability: replicates, in % (unit assumed)
# Text: (§1) Pancreatic cancer cell lines PANC-1 (cat. no. CRL-1469), SW1990 (cat. no. CRL-2172) were obtained from ATCC (American Type Culture Collection). Genetically modified isogeneic colon cancer cell lines SW48-PAR and SW48-G12D were obtained from Horizon Discovery Ltd. PANC-1 (human pancreatic cancer, KRas^G12D), SW1990 (human pancreatic cancer, KRas^G12D), SW48-PAR (human colon cancer; parental cell line KRas^wt), and SW48-G12D (human colon cancer; heterozygous knockin of the KRas^G12D activating mutation) cancer cell lines were cultured in Roswell Park Memorial Institute Medium (RPMI; Biosera, Nuaille, France), supplemented with 10% heat-inactivated Fetal Bovine Serum (FBS; Biosera), and with 1% Penicillin/Streptomycin (Biosera). Cells were cultured in sterile T75 flasks with ventilation cap (Sarstedt, Nümbrecht, Germany) at 37 °C in a humidified atmosphere with 5% CO2 in ESCO CelCulture Incubator (ESCO, Friedberg, Germany). Manipulations with the cells were performed in biosafety cabinet (laminar) ESCO Sentinel Gold class II model AC2-4E8 (ESCO).
# (§2) After standard harvesting of the cells by trypsin-EDTA (Biosera), 7 × 10^3 cells per well depending on the cell line, were seeded in serum-containing growth medium to 96-well plates and incubated. After 24 h, cells were treated with various concentrations of fragments (32 nM–100 μM), dissolved in serum-containing medium, and incubated under standard conditions. Control wells were treated with medium. Final concentration of serum was 2.5%, final concentration of DMSO was 0.2%. Treatment was for 72 h continuously.
# (§3) Afterwards, MTT assay was performed in order to determine cell viability, by adding 20 μL of MTT solution (5 mg/mL in PBS) to each well and after 2 h of incubation at 37 °C, the supernatant was removed. The formazan crystals were dissolved in 100 μL of a 1:1 solution of DMSO (Sigma-Aldrich):EtOH (Molar Chemicals) and the absorbance was measured after 15 min at λ = 570 nm by using a microplate reader (BioTek 800TS, Agilent, Santa Clara, CA, USA). The IC50 values of the fragments were calculated using GraphPad Prism 6 (GraphPad Software, San Diego, CA, USA). The experiments were done in triplicate, and each experiment was repeated two times.
# SW48-PAR cells = test: MTT cell viability assay, SW48-PAR; type: cell-based, human; settings: for cell viability: replicates, in % (unit assumed)
# Text: as §1, §2, §3
# [1] = µM] -0.0102833, runs/replicates
smiles,measurement,setting,value
"Cc1[nH]c2ccccc2c1SCCNC(=O)CCC1(C)N=N1 [PhP065, c1cccc(c12)c(c(C)[nH]2)SCCNC(=O)CCC3(C)N=N3]",IC50,MOLM-13 cells,100 µM
same,ΔFnorm,"STAT5B NTD; µM] 0.290724, runs/replicates",0.9086 ‰ and 1.12 ‰ and 1.315 ‰ and 0.6539 ‰ and 3.352 ‰
same,ΔFnorm,"STAT5B NTD; µM] 0.591766, runs/replicates",1.904 ‰ and 1.964 ‰ and 2.239 ‰ and 1.873 ‰ and 1.543 ‰
same,ΔFnorm,"STAT5B NTD; µM] 0.89279, runs/replicates",2.551 ‰ and 2.874 ‰ and 3.878 ‰ and 2.514 ‰ and 2.452 ‰
same,ΔFnorm,"STAT5B NTD; µM] 1.19382, runs/replicates",2.441 ‰ and 3.584 ‰ and 3.84 ‰ and 4.085 ‰ and 3.441 ‰
same,ΔFnorm,"STAT5B NTD; µM] 1.49485, runs/replicates",2.771 ‰ and 2.9356 ‰ and 3.692 ‰ and 3.134 ‰ and 1.982 ‰
same,ΔFnorm,"STAT5B NTD; µM] 1.79588, runs/replicates",5.943 ‰ and 5.783 ‰ and 5.743 ‰ and 2.367 ‰ and 1.87 ‰
same,ΔFnorm,"STAT5B NTD; µM] 2.09691, runs/replicates",3.3934 ‰ and 3.578 ‰ and 3.242 ‰ and 3.625 ‰ and 1.481 ‰
same,ΔFnorm,STAT5B NTD; [1],-0.1141 ‰ and 1.411 ‰ and 0.9224 ‰ and 2.015 ‰ and 2.612 ‰
same,ΔFnorm,"STAT5B NTD; µM] -0.612432, runs/replicates",0.5449 ‰ and 0.5795 ‰ and -0.1361 ‰ and -1.636 ‰ and -0.3141 ‰
same,ΔFnorm,"STAT5B NTD; µM] -1.21467, runs/replicates",-0.5121 ‰ and -0.1857 ‰ and -0.4698 ‰ and -1.614 ‰ and -1.146 ‰
same,Fnorm,"STAT5B NTD; µM] 0.290724, runs/replicates",864.059 ‰ and 864.76 ‰ and 864.855 ‰ and 874.324 ‰ and 877.312 ‰
same,Fnorm,"STAT5B NTD; µM] 0.591766, runs/replicates",865.054 ‰ and 865.604 ‰ and 865.779 ‰ and 875.543 ‰ and 875.503 ‰
same,Fnorm,"STAT5B NTD; µM] 0.89279, runs/replicates",865.701 ‰ and 866.514 ‰ and 867.418 ‰ and 876.184 ‰ and 876.412 ‰
same,Fnorm,"STAT5B NTD; µM] 1.19382, runs/replicates",865.591 ‰ and 867.224 ‰ and 867.38 ‰ and 877.755 ‰ and 877.401 ‰
same,Fnorm,"STAT5B NTD; µM] 1.49485, runs/replicates",865.921 ‰ and 866.576 ‰ and 867.232 ‰ and 876.804 ‰ and 875.942 ‰
same,Fnorm,"STAT5B NTD; µM] 1.79588, runs/replicates",869.093 ‰ and 869.423 ‰ and 869.283 ‰ and 876.037 ‰ and 875.83 ‰
same,Fnorm,"STAT5B NTD; µM] 2.09691, runs/replicates",866.543 ‰ and 867.218 ‰ and 866.782 ‰ and 877.295 ‰ and 875.441 ‰
same,Fnorm,STAT5B NTD; [1],863.036 ‰ and 865.051 ‰ and 864.462 ‰ and 875.685 ‰ and 876.572 ‰
same,Fnorm,"STAT5B NTD; µM] -0.612432, runs/replicates",863.695 ‰ and 864.219 ‰ and 863.404 ‰ and 872.034 ‰ and 873.646 ‰
same,Fnorm,"STAT5B NTD; µM] -1.21467, runs/replicates",862.638 ‰ and 863.454 ‰ and 863.07 ‰ and 872.056 ‰ and 872.814 ‰
same,Kd,"STAT5B NTD; MST, without irradiation, 25 °C",2.58 µM
"Cc1ncc(CO)c(CNC(=O)CCC2(C)N=N2)c1O [PhP072, Cc1ncc(CO)c(c1O)CNC(=O)CCC2(C)N=N2]",Antiproliferative effect,"SW48-G12D cells; MTT, 72 h",antiproliferative activity
same,cell viability,SW48-G12D cells; [PhP072] 3.2e-8 M,102.762 and 97.2381 and 95.6914 and 100.978 and 97.4052 and 99.447
same,cell viability,SW48-G12D cells; [PhP072] 1.6e-7 M,100.994 and 98.1219 and 99.0057 and 100.978 and 99.7022 and 99.9575
same,cell viability,SW48-G12D cells; [PhP072] 8e-7 M,99.8895 and 99.2267 and 100.552 and 98.9365 and 101.489
same,cell viability,SW48-G12D cells; [PhP072] 4e-6 M,98.5638 and 96.7962 and 95.0285 and 98.9365 and 100.723 and 98.6813
same,cell viability,SW48-G12D cells; [PhP072] 2e-5 M,91.4933 and 92.1561 and 91.9352 and 92.8111 and 94.0872 and 91.5349
same,cell viability,SW48-G12D cells; [PhP072] 0.0001 M,75.1427 and 76.0265 and 77.5732 and 78.5183 and 77.2421 and 80.3049
same,Antiproliferative effect,"SW48-PAR cells; MTT, 72 h",antiproliferative activity
same,cell viability,SW48-PAR cells; [PhP072] 3.2e-8 M,110.532 and 99.0425 and 106.761 and 103.567 and 100.905
same,cell viability,SW48-PAR cells; [PhP072] 1.6e-7 M,106.815 and 103.774 and 96.677 and 105.91 and 101.544 and 99.8403
same,cell viability,SW48-PAR cells; [PhP072] 8e-7 M,103.098 and 102.084 and 99.3805 and 101.65 and 100.905 and 100.16
same,cell viability,SW48-PAR cells; [PhP072] 4e-6 M,97.3529 and 105.125 and 97.3912 and 92.7061 and 92.8126
same,cell viability,SW48-PAR cells; [PhP072] 2e-5 M,98.3667 and 91.9459 and 92.9597 and 81.7386 and 78.0118 and 75.2433
same,cell viability,SW48-PAR cells; [PhP072] 0.0001 M,78.0907 and 76.0631 and 71.332 and 66.8313 and 68.322 and 64.4887
